Values quoted from earlier work, collected in patent US12201720B2, “Pharmaceutical composition comprising GHB gastro-retentive raft forming systems having trigger pulse drug release” (Tris Pharma, Inc., priority 2017, dated 2025).
Read-outs that look alike come from different tables or passages of the source.

Conditions: descriptive statement

O=C(O)CCCO [Sodium oxybate]
Solubility in water / aqueous solutions: very soluble
Solubility in water / aqueous solutions (listed as Sodium GHB): highly water-soluble
